Results taken from patent publication US8679495B2, “Use of anti-90K monoclonal antibodies for the prevention and treatment of tumors and metastases thereof” (MediaPharma S.r.l., priority 2009, dated 2014).

System: human breast cancer cell MDA-MD-231
Test: Tumor growth of breast cancer cells injected subcutaneously in nude mice
Assay type: in vivo
Conditions: MDA-MD-231 in nude mice, intraperitoneal, SP-2 10 μg/kg twice a week, docetaxel 7.5 mg/kg once a week, up to 44 days
Experimental: Materials and methods: Nude mice were injected subcutaneously with 5×10^6 human breast cancer cell MDA-MD-231 (cells expressing 90K). One group was injected by intraperitoneal route with phosphate buffer and served as a control. Other groups were treated by intraperitoneal route with SP-2 antibody at a dose of 10 μg/kg twice a week, or a control IgG at the same dose, or with docetaxel at a dose of 7.5 mg/kg once a week, or with a combination of SP-2 and docetaxel. Tumor growth was followed up by measuring lesion diameters up to 44 days after injection. Each group, control and treated, consisted of 8 animals.

CC(=O)O[C@@]12CO[C@@H]1C[C@H](O)[C@@]1(C)C(=O)[C@H](O)C3=C(C)[C@@H](OC(=O)[C@H](O)[C@@H](NC(=O)OC(C)(C)C)c4ccccc4)C[C@@](O)([C@@H](OC(=O)c4ccccc4)[C@H]21)C3(C)C [docetaxel]
tumor growth in comparison with control group: significantly reduced tumor growth
